Data published in PubChem BioAssay AID1117339.
Calls of active or inactive are those of the source. No rule for the calls is given here.

System: HCT116 viability, CellTiter-Glo, GSK3B-pretreated
Experiment: HCT116 cell viability decrease, GSK3B pretreatment – CellTiter-Glo, IC50, dose response (AID 1117339)

SMILES	IC50
CCCCCCCCCCCCCC[N+](C)(C)C	754 nM
Cc1ccc([N+](=O)[O-])[c]2c1[O][Hg]2	2220 nM (inactive)
OCCN1CCN(CC/C=C2/c3ccccc3Sc3ccc(C(F)(F)F)cc32)CC1	2890 nM
